The values below come from US11357769B2, “Drug combinations for reducing cell viability and/or cell proliferation” (Eisai R&D Management Co., Ltd., priority 2016, dated 2022).

For this test, the system named is Hep3B xenograft. The test can be described thus: Antitumor activity in Hep3B xenograft model of hepatocellular carcinoma. It is filed as in vivo, mice. As to conditions: 17 days. The method, then:
The human hepatocellular cancer cell line Hep3B was cultured in RPMI1640 medium containing 10% fetal bovine serum at 37° C. in a 5% CO2 atmosphere and kept in exponential growth phase. […] When the mean tumor volume (TV) reached approximately 170 mm^3 (10 days after implantation), 56 mice were selected based on their TVs, and were sorted into 7 treatment groups with 8 animals per group. […] Body weights were measured daily and tumor measurements were performed twice weekly.
[formula] where Day X is any day of measurement.
The anti-tumor effects of the treatment, Partial (PR) and complete regression (CR), stable (SD) and progressive (PD) disease were defined by the H3 Xenograft Model Response Criteria (Appendix 4). […] The relative body weight changes were analyzed by two way ANOVA followed by Dunnett's post hoc.

As for `C=CC(=O)Nc1cc(N2CCN(CC)CC2)ccc1Nc1cc(N(C)C(=O)Nc2c(Cl)c(OC)cc(OC)c2Cl)ncn1` [Compound 1, N-(2-((6-(3-(2,6-dichloro-3,5-dimethoxyphenyl)-1-methylureido)pyrimidin-4-yl)amino)-5-(4-ethylpiperazin-1-yl)phenyl)acrylamide], the “Tumor Growth Inhibition (TGI)” value is, setting by setting: (Compound 1 single agent 100 mg/kg PO) 16%; (Compound 1 single agent 300 mg/kg PO, p<0.05 vs vehicle) 64%.
